Patent US9139596B2, “Cyclic prodrugs of duocarmycin analogs” (The Scripps Research Institute, priority 2012, dated 2015)
Read-outs that look alike come from different tables or passages of the source.

Legend:
[1] = tested on: L1210 murine leukemia cell line; experiment: In vitro cytotoxic activity (cell growth inhibition), L1210; assay type: cell-based
Experimental: In Vitro Cytotoxic Activity. Both (+)- and ent-(−)-6 and their N-Boc precursors 16 were tested for cell growth inhibition in a cytotoxic assay with the L1210 murine leukemia cell line.

[2] = Chemical reactivity of N-Boc-prodrug 16 under acidic, basic and nucleophilic conditions; assay type: physicochemical
Experimental: In order to determine the ability of the free drug to be released under physiological conditions, the chemical reactivity of N-Boc-prodrug 16 was assessed under a variety of acidic, basic, and nucleophilic conditions.

[3] = Mus musculus, L1210, read-out: IC50 L1210 natural, natural enantiomer, Table 2
[4] = Mus musculus, L1210, read-out: IC50 L1210 unnatural, unnatural enantiomer, Table 2
[5] = Mus musculus, L1210, read-out: In vitro IC50 L1210 natural, natural (S)-enantiomer, Table 4
[6] = Mus musculus, L1210, read-out: In vitro IC50 L1210 unnatural, unnatural (R)-enantiomer, Table 4
[7] = natural (S)-enantiomer, Table 4

Question: With COC(=O)c1cc2c([nH]1)C(=O)C=C1N(C(=O)c3cc4cc(OC)c(OC)c(OC)c4[nH]3)CC3CC123 (stereo not shown) [Compound 1, Duocarmycin SA, reference compound] as the compound, how does the IC50 [1, 3] read?
Answer: 0.01 nM

Question: And the IC50 [1, 4]?
Answer: 0.1 nM

Question: And the IC50 [1, 5]?
Answer: 0.01 nM

Question: What about the IC50 [1, 6] of the same compound?
Answer: 0.1 nM

Question: Which IC50 ([1]; Mus musculus, L1210, natural (S)-enantiomer, Table 4, read-out: In vitro IC50 L1210 natural) does the source give for COc1c(O)c2c(c3cc(C(=O)N4CCc5c4c(O)c(OC)c4[nH]c(C(=O)N6CC7CC78C6=CC(=O)c6[nH]cc(C)c68)cc54)[nH]c13)CCN2C(N)=O (stereo not shown) [Compound 2, CC-1065, reference compound] here?
Answer: 0.02 nM

Question: And the IC50 ([1]; Mus musculus, L1210, natural enantiomer, Table 2, read-out: IC50 L1210 natural)?
Answer: 0.02 nM

Question: And the IC50 ([1]; Mus musculus, L1210, unnatural (R)-enantiomer, Table 4, read-out: In vitro IC50 L1210 unnatural)?
Answer: 0.02 nM

Question: What about the IC50 ([1]; Mus musculus, L1210, unnatural enantiomer, Table 2, read-out: IC50 L1210 unnatural) of the same compound?
Answer: 0.02 nM

Question: Which “fold less active than N-Boc-CBI” value ([1]; L1210) does the source give for CC(C)(C)OC(=O)N1C[C@@H](CCl)c2c1cc1c3c(cccc23)NC(=O)O1 [Compound 16, tert-Butyl 10-(Chloromethyl)-5-oxo-9,10-dihydro-4H-pyrrolo[3′,2′:5,6]naphtho[1,8-de][1,3]oxazine-8(5H)-carboxylate] here?
Answer: 50-100 fold

Question: And the IC50 [1, 3]?
Answer: 4900 nM

Question: And the IC50 [1, 4]?
Answer: 5800 nM

Question: What about the “stability of the cyclic carbamate to hydrolysis under acidic conditions” value ([2]; 1:1 TFA:CH2Cl2, 4 N HCl in EtOAc, 48 h at 23° C., Boc group cleaved) of the same compound?
Answer: stable

Question: And the “stability to BnNH2” value ([2]; BnNH2 (100 equiv) in MeOH, 24 h)?
Answer: rapidly cleaved

Question: What about the “stability to BnNH2” value ([2]; BnNH2 in THF) of the same compound?
Answer: stable

Question: And the “stability in the presence of nucleophiles BnSH and BnOH” value ([2]; BnSH and BnOH (100 equiv) in MeOH and THF at 23° C. for 48 h)?
Answer: completely stable

Question: Which “fold less active than 4 (active enantiomer)” value ([1]; L1210, inferred from the racemate IC50) does the source give for Nc1cccc2c1C(=O)C=C1N(C(=O)c3cc4cc(NC(=O)c5cc6ccccc6[nH]5)ccc4[nH]3)CC3CC123 (stereo not shown) [Compound 20, N-(2-(5-Amino-4-oxo-1,2,9,9a-tetrahydrocyclopropa[c]benzo[e]indole-2-carbonyl)-1H-indol-5-yl)-1H-indole-2-carboxamide] here?
Answer: 3-4 fold

Question: What about the IC50 ([1]; L1210, racemic parent drug, read-out: IC50) of the same compound?
Answer: 0.21 nM

Question: Which IC50 [1, 5] does the source give for N=C1Nc2cccc3c4c(cc(c23)O1)N(C(=O)c1cc2cc(NC(=O)c3cc5ccccc5[nH]3)ccc2[nH]1)C[C@H]4CCl [Compound 24, (S)—N-(2-(10-(chloromethyl)-5-imino-5,8,9,10-tetrahydro-4H-pyrrolo[3′,2′,5,6]naphtho[1,8-de][1,3]oxazine-8-carbonyl)-1H-indol-5-yl)-1H-indole-2-carboxamide] here?
Answer: 0.5 nM

Question: What about the IC50 [1, 6] of the same compound?
Answer: 64 nM

Question: And the “In vitro IC50 L1210 natural” value [1, 7]?
Answer: in the nanomolar range

Question: Which IC50 [1, 5] does the source give for O=C(Nc1ccc2[nH]c(C(=O)N3C[C@@H](CCl)c4c3cc3c5c(cccc45)NC(=S)O3)cc2c1)c1cc2ccccc2[nH]1 [Compound 25, (S)—N-(2-(10-(chloromethyl)-5-thioxo-5,8,9,10-tetrahydro-4H-pyrrolo[3′,2′,5,6]naphtho[1,8-de][1,3]oxazine-8-carbonyl)-1H-indol-5-yl)-1H-indole-2-carboxamide] here?
Answer: 0.29 nM

Question: And the IC50 [1, 6]?
Answer: 62 nM

Question: What about the “In vitro IC50 L1210 natural” value [1, 7] of the same compound?
Answer: in the nanomolar range

Question: For O=C(Nc1ccc2[nH]c(C(=O)N3C[C@@H](CCl)c4c3cc3c5c(cccc45)N=C(SCCN4C(=O)c5ccccc5C4=O)O3)cc2c1)c1cc2ccccc2[nH]1 [Compound 29, (S)—N-(2-(10-(chloromethyl)-5-((2-(1,3-dioxoisoindolin-2-yl)ethyl)thio)-9,10-dihydro-8H-pyrrolo[3′,2′:5,6]naphtho[1,8-de][1,3]oxazine-8-carbonyl)-1H-indol-5-yl)-1H-indole-2-carboxamide], which IC50 [1, 5] is on record?
Answer: < 100 nM

Question: What about the IC50 ([1]; read-out: In vitro IC50 L1210 natural, natural (S)-enantiomer, Table 4) of the same compound?
Answer: 83.6 nM
